From US7368471B2, “Substituted indole acid derivatives as inhibitors of plasminogen activator inhibitor-1 (PAI-1)” (Wyeth, priority 2001, dated 2008) come the findings set out here.

In data set [1] the target is T1, recombinant human plasminogen activator inhibitor-1 (PAI-1) (Homo sapiens, UniProt P05121).
T1 construct: purchased Molecular Innovations, Royal Oak, Mich
The data set is described as follows: Modification of the Primary Screen for the PAI-1 Inhibition (IC50). It counts as biochemical. The note with it: footnote b: determined by a modification of the Primary Screen for the PAI-1 Inhibition. The procedure: Primary Screen for the PAI-1 Inhibition
Test compounds are dissolved in DMSO at a final concentration of 10 mM, then diluted 100× in physiologic buffer. The inhibitory assay is initiated by the addition of the test compound (1-100 μM final concentration, maximum DMSO concentration of 0.2%) in a pH 6.6 buffer containing 140 nM recombinant human plasminogen activator inhibitor-1 (PAI-1; Molecular Innovations, Royal Oak, Mich.). Following a 1 hour incubation at room temperature, 70 nM of recombinant human tissue plasminogen activator (tPA) is added, and the combination of the test compound, PAI-1 and tPA is incubated for an additional 30 minutes. Following the second incubation, Spectrozyme-tPA (American Diagnostica, Greenwich, Conn.), a chromogenic substrate for tPA, is added and absorbance read at 405 nm at 0 and 60 minutes. Relative PAI-1 inhibition is equal to the residual tPA activity in the presence of the test compound and PAI-1. Control treatments include the complete inhibition of tPA by PAI-1 at the molar ratio employed (2:1), and the absence of any effect of the test compound on tPA alone.

T1 sequence (P05121 24-402): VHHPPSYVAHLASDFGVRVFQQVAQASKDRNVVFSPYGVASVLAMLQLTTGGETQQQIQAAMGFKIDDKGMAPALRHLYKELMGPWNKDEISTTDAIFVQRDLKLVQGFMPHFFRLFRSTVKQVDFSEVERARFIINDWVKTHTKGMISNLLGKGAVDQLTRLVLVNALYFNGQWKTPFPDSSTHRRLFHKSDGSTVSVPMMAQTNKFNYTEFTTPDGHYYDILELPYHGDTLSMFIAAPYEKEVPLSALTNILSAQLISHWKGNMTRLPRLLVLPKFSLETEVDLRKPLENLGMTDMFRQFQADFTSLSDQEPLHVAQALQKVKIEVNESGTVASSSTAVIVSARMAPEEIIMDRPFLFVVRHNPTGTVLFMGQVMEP

Broadly, the IC50 is the concentration that gives 50% inhibition. As usually defined, the melting point is the temperature of the solid-liquid transition. Compound `CCCCn1cc(C(=O)C(=O)O)c2cc(-c3cccc(Cl)c3)ccc21` [Example 30, [1-Butyl-5-(3-chlorophenyl)-1H-indol-3-yl](oxo)acetic acid] gave a melting point of 108 to 109 °C. For the same compound, the IC50 in data set [1] amounted to 16 µM.
Take `CCC(CC)Cn1cc(C(=O)C(=O)O)c2cc(-c3ccc(OC(F)(F)F)cc3)ccc21` [Example 40, {1-(2-Ethylbutyl)-5-[4-(trifluoromethoxy)phenyl]-1H-indol-3-yl}(oxo)acetic acid]: the melting point fell in the range of 98 to 99 °C. The IC50 in data set [1] stood at 8.5 µM.
